Measurements as given in PubChem BioAssay (NCI).
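96-well plates; 48 h exposure; 5 concentrations. Endpoints by linear interpolation between flanking doses. Not reached: highest tested concentration assigned. GI50 marks 50% less growth. Definition used: TGI = concentration required for complete inhibition of growth.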

Experiments:
Test in all cases: inhibition of tumour cell growth, NCI panel, 48 h
SW-620 colon = test system: SW-620 colon
SN12C renal = test system: SN12C renal
HCT-15 colon = test system: HCT-15 colon
NCI-H23 lung = test system: NCI-H23 lung
CAKI-1 renal = test system: CAKI-1 renal
TK-10 renal = test system: TK-10 renal
MDA-MB-435 = test system: MDA-MB-435
PC-3 prostate = test system: PC-3 prostate
DU-145 prostate = test system: DU-145 prostate
HOP-62 NSCLC = test system: HOP-62 NSCLC

With `CC(Nc1ccc(S(=O)(=O)N=C(N)N)cc1)c1c2ccccc2nc2ccccc12` (configuration not stated) the TGI (SW-620 colon) was greater than 100 µM, the TGI (SN12C renal) was greater than 100 µM and the TGI (HCT-15 colon) was greater than 100 µM. For the same compound, the TGI (NCI-H23 lung) was 88.9 µM, the TGI (CAKI-1 renal) was 81 µM and the TGI (TK-10 renal) was greater than 100 µM.
For `Oc1ccc(C(c2ccc(O)cc2)c2ccc(O)cc2)cc1`, the TGI (MDA-MB-435) was 46.1 µM, the TGI (SW-620 colon) was 88.1 µM and the TGI (SN12C renal) was 43.9 µM. For the same compound, the TGI (HCT-15 colon) was 55.3 µM, the TGI (PC-3 prostate) was 66.5 µM and the TGI (NCI-H23 lung) was 45.7 µM. For the same compound, the TGI (CAKI-1 renal) was 40 µM, the TGI (TK-10 renal) was 63.4 µM and the TGI (DU-145 prostate) was 81.6 µM.
For `O=C(O)CCC(N=Cc1nc(-c2ccccc2)oc1O)C(=O)O` (configuration not stated), the TGI (SW-620 colon) was greater than 100 µM, the TGI (SN12C renal) was greater than 100 µM and the TGI (HCT-15 colon) was greater than 100 µM. The TGI (HOP-62 NSCLC) was greater than 100 µM, the TGI (NCI-H23 lung) was greater than 100 µM and the TGI (CAKI-1 renal) was greater than 100 µM. It also gave a TGI (TK-10 renal) greater than 100 µM.
With `O=[P+](O)c1ccsc1` the TGI (SW-620 colon) was greater than 100 µM, the TGI (SN12C renal) was greater than 100 µM and the TGI (HCT-15 colon) was greater than 100 µM. For the same compound, the TGI (HOP-62 NSCLC) was greater than 100 µM, the TGI (NCI-H23 lung) was greater than 100 µM and the TGI (CAKI-1 renal) was greater than 100 µM. The TGI (TK-10 renal) was greater than 100 µM.
Work on `COCc1cc(C(=O)Nc2cc([C@H]3CC[C@@H](OC(=O)NC(C)C)C3)[nH]n2)n(C)n1` yielded a GI50 (MDA-MB-435) of 16.1 µM, a TGI (MDA-MB-435) greater than 100 µM and a GI50 (SW-620 colon) of 4.32 µM. For the same compound, the TGI (SW-620 colon) was 74.7 µM, the GI50 (SN12C renal) was 9.58 µM and the TGI (SN12C renal) was greater than 100 µM. The GI50 (HCT-15 colon) was 22.8 µM, the TGI (HCT-15 colon) was greater than 100 µM and the GI50 (PC-3 prostate) was 10.3 µM. For the same compound, the TGI (PC-3 prostate) was 73.6 µM, the GI50 (HOP-62 NSCLC) was 8.6 µM and the TGI (HOP-62 NSCLC) was 88.4 µM. For the same compound, the GI50 (CAKI-1 renal) was 3.64 µM, the TGI (CAKI-1 renal) was 95.3 µM and the GI50 (TK-10 renal) was 19.9 µM. It also gave a TGI (TK-10 renal) greater than 100 µM, a GI50 (DU-145 prostate) of 5.13 µM and a TGI (DU-145 prostate) greater than 100 µM.
Compound `O=C(c1ccccc1)C1OC1c1ccc([N+](=O)[O-])cc1` (configuration not stated) has a GI50 (MDA-MB-435) of 2.95 µM, a TGI (MDA-MB-435) greater than 100 µM and a GI50 (SW-620 colon) of 2.42 µM. The TGI (SW-620 colon) was 6.6 µM, the GI50 (SN12C renal) was 10.1 µM and the TGI (SN12C renal) was greater than 100 µM. It also gave a GI50 (HCT-15 colon) of 4.28 µM, a TGI (HCT-15 colon) greater than 100 µM and a GI50 (PC-3 prostate) of 9.9 µM. It also gave a TGI (PC-3 prostate) greater than 100 µM, a GI50 (HOP-62 NSCLC) of 4.76 µM and a TGI (HOP-62 NSCLC) of 65.9 µM. For the same compound, the GI50 (NCI-H23 lung) was 2.84 µM, the TGI (NCI-H23 lung) was 14.1 µM and the GI50 (CAKI-1 renal) was 2.31 µM. It also gave a TGI (CAKI-1 renal) of 6.56 µM, a GI50 (TK-10 renal) of 6.1 µM and a TGI (TK-10 renal) of 50.8 µM.
Compound `COC(=O)C(C(=O)C(=O)Nc1ccc([N+](=O)[O-])cc1[N+](=O)[O-])c1nc2ccc(Cl)cc2[nH]c1=O` (configuration not stated) has a TGI (SW-620 colon) greater than 100 µM, a TGI (SN12C renal) greater than 100 µM and a TGI (HCT-15 colon) greater than 100 µM. The TGI (HOP-62 NSCLC) was greater than 100 µM, the TGI (NCI-H23 lung) was greater than 100 µM and the TGI (CAKI-1 renal) was greater than 100 µM. It also gave a TGI (TK-10 renal) greater than 100 µM.
`CC(C)([NH-])CO.CC(C)([NH-])CO.[Cl][Cd][Cl]` was tested, and the GI50 (SW-620 colon) was 18.6 µM, the TGI (SW-620 colon) was 38.9 µM and the GI50 (HCT-15 colon) was 20.3 µM. It also gave a TGI (HCT-15 colon) of 41.4 µM, a GI50 (HOP-62 NSCLC) greater than 100 µM and a TGI (HOP-62 NSCLC) greater than 100 µM. The GI50 (NCI-H23 lung) was 13.9 µM, the TGI (NCI-H23 lung) was 28.4 µM and the GI50 (CAKI-1 renal) was 18.3 µM. The TGI (CAKI-1 renal) was 32.3 µM, the GI50 (TK-10 renal) was 19.1 µM and the TGI (TK-10 renal) was 53.6 µM.
Work on `O=C1C=CC(=Nc2cc(Br)c(O)c(Br)c2)C=C1` yielded a GI50 (MDA-MB-435) of 18.9 µM, a TGI (MDA-MB-435) greater than 100 µM and a GI50 (SW-620 colon) of 15.8 µM. It also gave a TGI (SW-620 colon) greater than 100 µM, a GI50 (SN12C renal) of 25.6 µM and a TGI (SN12C renal) of 84.1 µM. It also gave a GI50 (HCT-15 colon) of 16.5 µM, a TGI (HCT-15 colon) of 43.8 µM and a GI50 (HOP-62 NSCLC) of 28.4 µM. For the same compound, the TGI (HOP-62 NSCLC) was 76.1 µM, the GI50 (NCI-H23 lung) was 16 µM and the TGI (NCI-H23 lung) was 38.3 µM. For the same compound, the GI50 (CAKI-1 renal) was 26.4 µM, the TGI (CAKI-1 renal) was 68 µM and the GI50 (TK-10 renal) was 32.9 µM. For the same compound, the TGI (TK-10 renal) was greater than 100 µM, the GI50 (DU-145 prostate) was 30 µM and the TGI (DU-145 prostate) was greater than 100 µM.
